Paper PMC6367340, “Novel insights into P450 BM3 interactions with FDA-approved antifungal azole drugs” (Scientific Reports, 2019)
“Also recorded” adds a separate entry of the source. Where two headings read alike, the source gives them in different places.

Key:
[1] = target: T1, BM3 A82F/F87V double mutant (DM) heme domain (Priestia megaterium, UniProt P14779, A83F/F88V); assay: biochemical; type: binding, Bacillus megaterium; details: for Delta Abs Peak (wavelength maximum of absorbance difference spectrum) / Delta Abs Trough (wavelength minimum of absorbance difference spectrum) / Delta Abs/Soret Peak / Soret Shift (final Soret wavelength at apparent saturation): DM BM3 heme domain; for Delta Abs/Soret Peak: maximal peak-minus-trough value divided by P450 Soret peak value; for Soret Shift (final Soret wavelength at apparent saturation): starting wavelength 418 nm
T1 construct: The BM3 heme domain proteins (WT and the DM A82F/F87V variant) used in this study were expressed as described in our previous studies; made in house; host or cells: E. coli BL21 (DE3)
Source text: (§1) This leads to dioxygen (O2) binding to heme iron and to the progression of the P450 catalytic cycle that leads to monooxygenation of the substrate. […] P450 UV-visible binding assays and other spectroscopic studies using azoles are often hindered by the low solubility of many of these drugs. […] The azoles used range widely in size and structure, and contain either an imidazole or a triazole functional group (or two triazole groups in the case of fluconazole). […] Spectral binding data were fitted using hyperbolic (Michaelis-Menten)[30] or tight-binding (Morrison)[31] equations, or by using the Hill function[32] in cases where there was a clear sigmoidal dependence of heme absorbance change on azole drug concentration.
(§2) Experiments were performed using a Cary 50 UV-Visible spectrophotometer (Agilent Technologies Ltd). WT and DM heme domains at concentrations of ~2–4 μM were used, and binding titrations were done by the addition of small (typically 0.2–0.4 μL) volumes of azole ligand stocks (1, 10 or 30 mM, to minimize amounts of solvent carrier used) to a 1 mL heme domain sample in a quartz cuvette. An extinction coefficient of 95 mM^−1 cm^−1 was used for the low-spin forms of the WT and DM heme domains. […] Azole drugs were obtained from Merck Chemicals (Nottingham, UK). All azole compounds used in these and other experiments done in this manuscript were sourced from Sigma Aldrich (Cambridge, UK).
(§3) Data were processed by the subtraction of the spectrum of each successive ligand-bound form (from a specific titration set) from the spectrum of the ligand-free enzyme. This produced a set of difference spectra (for each particular azole titration), from which wavelengths associated with the absorbance minimum (Amin) and maximum (Amax) were readily identified. For each titration point, an absorbance difference value was calculated as Amax minus Amin, using the same wavelength pair throughout an individual experiment. These values were then plotted against the relevant azole ligand concentrations used. […] Assays were done using 25 mM KPi (pH 7) at a constant temperature of 30 °C.

WT BM3 heme domain = target: T2, WT BM3 heme domain (Priestia megaterium, UniProt P14779); assay: biochemical; type: binding, Bacillus megaterium; details: for Delta Abs/Soret Peak: maximal peak-minus-trough value divided by P450 Soret peak value; for Soret Shift (final Soret wavelength at apparent saturation): starting wavelength 418 nm
T2 construct: The BM3 heme domain proteins (WT and the DM A82F/F87V variant) used in this study were expressed as described in our previous studies; made in house; host or cells: E. coli BL21 (DE3)
Source text: as §1, §2, §3

P450 BM3 (CYP102A1) = tested on: P450 BM3 (CYP102A1); parameters: method as in PMID 10191269; details: arachidonic acid as the substrate; cited from earlier work
[2] = DM (A82F/F87V) BM3 heme domain, 25 mM KPi pH 7, 30 °C

T2 sequence (P14779 2-472): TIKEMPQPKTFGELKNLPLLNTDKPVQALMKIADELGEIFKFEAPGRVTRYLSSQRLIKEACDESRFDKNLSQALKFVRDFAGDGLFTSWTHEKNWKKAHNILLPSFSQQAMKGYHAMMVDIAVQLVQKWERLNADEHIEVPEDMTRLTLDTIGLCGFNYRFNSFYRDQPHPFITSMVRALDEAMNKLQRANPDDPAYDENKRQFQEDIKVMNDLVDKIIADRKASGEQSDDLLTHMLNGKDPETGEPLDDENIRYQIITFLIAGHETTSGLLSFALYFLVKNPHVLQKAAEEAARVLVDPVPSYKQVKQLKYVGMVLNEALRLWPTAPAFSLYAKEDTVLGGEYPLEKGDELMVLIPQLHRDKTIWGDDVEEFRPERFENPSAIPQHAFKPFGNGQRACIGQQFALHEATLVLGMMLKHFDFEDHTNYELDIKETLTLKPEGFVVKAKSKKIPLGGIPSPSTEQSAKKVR
T1 sequence (P14779 2-472 A83F/F88V): as the sequence (P14779 2-472) above, with A82F, F87V counted along it

Compound	Delta Abs Peak (wavelength maximum of absorbance difference spectrum) [1]	Delta Abs Trough (wavelength minimum of absorbance difference spectrum) [1]	Delta Abs/Soret Peak [1]	Soret Shift (final Soret wavelength at apparent saturation) [1]	Kd [1, 2]	Kd ([1]; DM enzyme, Figure S1 legend, tight-binding (Morrison) fit)	Kd (WT BM3 heme domain)	Delta Abs Peak (wavelength maximum of absorbance difference spectrum) (WT BM3 heme domain; WT BM3 heme domain)	Delta Abs Trough (wavelength minimum of absorbance difference spectrum) (WT BM3 heme domain; WT BM3 heme domain)	Delta Abs/Soret Peak (WT BM3 heme domain; WT BM3 heme domain)	Soret Shift (final Soret wavelength at apparent saturation) (WT BM3 heme domain; WT BM3 heme domain)	Soret spectral shift / heme absorbance change on titration (in words) (WT BM3 heme domain; WT BM3 heme domain)	Tighter binding to DM heme domain than to WT heme domain ([1]; DM versus WT heme domain)	Kd (WT BM3 heme domain; Kd, WT BM3 heme domain, 25 mM KPi pH 7, 30 °C, NB = no binding seen in UV-visible spectroscopic titrations)	catalytic rate for substrate oxidation (P450 BM3 (CYP102A1))
c1ccc(-c2ccc(C(c3ccccc3)n3ccnc3)cc2)cc1 (stereo not drawn) [Bifonazole]	436 nm	413 nm	0.42	425 nm	130 ± 50 nM	130 ± 20 nM	3540 ± 50 nM	434 nm	413 nm	0.43	423 nm	–	–	–	–
Clc1ccc(CCC(Cn2ccnc2)Sc2c(Cl)cccc2Cl)cc1 (stereo not drawn) [Butoconazole nitrate]	433 nm	413 nm	0.47	424 nm	470 ± 20 nM	–	3800 ± 120 nM	434 nm	413 nm	0.35	422 nm	–	–	–	–
CC(C)(C)C(=O)C(Oc1ccc(Cl)cc1)n1ccnc1 (stereo not drawn) [Climbazole]	430 nm	408 nm	0.50	424 nm	320 ± 10 nM	–	1520 ± 20 nM	433 nm	413 nm	0.43	424 nm	–	–	–	–
Clc1ccc(C(Cn2ccnc2)OCc2ccc(Sc3ccccc3)cc2)c(Cl)c1 (stereo not drawn) [Fenticonazole nitrate]	434 nm	414 nm	0.44	424 nm	520 ± 30 nM	–	1890 ± 50 nM	434 nm	415 nm	0.21	419 nm	–	–	–	–
OC(Cn1cncn1)(Cn1cncn1)c1ccc(F)cc1F [Fluconazole]	434 nm	414 nm	0.19	421 nm	2910 ± 200 nM	–	–	–	–	–	–	failed to induce a Soret spectral shift of sufficient extent to allow Kd determination	–	–	–
Clc1ccc(C(Cn2ccnc2)OCc2c(Cl)cccc2Cl)c(Cl)c1 (stereo not drawn) [Isoconazole nitrate]	435 nm	415 nm	–	–	440 ± 20 nM	–	12000 ± 500 nM	436 nm	415 nm	–	–	–	–	–	–
CCC(C)n1ncn(-c2ccc(N3CCN(c4ccc(OCC5COC(Cn6cncn6)(c6ccc(Cl)cc6Cl)O5)cc4)CC3)cc2)c1=O (stereo not drawn) [Itraconazole]	438 nm	414 nm	0.16	421 nm	50 ± 10 nM	–	–	–	–	–	–	failed to induce a Soret spectral shift of sufficient extent to allow Kd determination; also recorded: no significant spectral shifts	–	–	–
CC[C@@H]([C@H](C)O)n1ncn(-c2ccc(N3CCN(c4ccc(OC[C@@H]5CO[C@@](Cn6cncn6)(c6ccc(F)cc6F)C5)cc4)CC3)cc2)c1=O [Posaconazole]	430 nm	395 nm	0.41	422 nm	2690 ± 50 nM	–	–	–	–	–	–	failed to induce a Soret spectral shift of sufficient extent to allow Kd determination; also recorded: no significant spectral shifts	–	–	–
C[C@@H](c1nc(-c2ccc(C#N)cc2)cs1)[C@](O)(Cn1cncn1)c1ccc(F)cc1F [Ravuconazole]	434 nm	413 nm	0.21	422 nm	340 ± 20 nM	–	–	–	–	–	–	failed to induce a Soret spectral shift of sufficient extent to allow Kd determination; also recorded: no significant spectral shifts	–	–	–
Clc1ccc(C(Cn2ccnc2)OCc2csc3c(Cl)cccc23)c(Cl)c1 (stereo not drawn) [Sertaconazole nitrate]	433 nm	413 nm	0.45	423 nm	460 ± 10 nM	–	2440 ± 140 nM	439 nm	416 nm	0.08	419 nm	–	–	–	–
Clc1ccc(C(Cn2ccnc2)OCc2ccsc2Cl)c(Cl)c1 (stereo not drawn) [Tioconazole]	434 nm	414 nm	0.44	423 nm	390 ± 30 nM	–	–	434 nm	414 nm	0.29	422 nm	–	~ 50 fold	24500 ± 1100 nM	–
C[C@@H](c1ncncc1F)[C@](O)(Cn1cncn1)c1ccc(F)cc1F [Voriconazole]	435 nm	414 nm	0.21	420 nm	1900 ± 130 nM	–	–	–	–	–	–	failed to induce a Soret spectral shift of sufficient extent to allow Kd determination	–	–	–
CCCCC/C=C\C/C=C\C/C=C\C/C=C\CCCC(=O)O [arachidonic acid]	–	–	–	–	–	–	–	–	–	–	–	–	–	–	~ 285 s^−1
